The text below walks through data of paper PMC5559473, “Screening of TB Actives for Activity against Nontuberculous Mycobacteria Delivers High Hit Rates” (Frontiers in Microbiology, 2017).

The test system of data set [1] is M. abscessus Bamboo. Kind of data set: Bactericidal assay (CFU, fold kill). The format is cell-based, Mycobacterium abscessus. To be noted: for Fold kill at MIC90: 10^7 CFU/mL exposed to MIC90 for 3 days, CFU vs starting inoculum.
Data set [2] relates to M. abscessus Bamboo. Description: Dose-response growth inhibition (broth microdilution). Format: cell-based, Mycobacterium abscessus. To be noted: Mycobacteroides abscessus; for MIC50: read-out: MIC50. (In broth dilution the organism is exposed to a series of concentrations in liquid medium.)
The conditions of data set [3]: rat, cited from earlier work.
The test system of a further data set is M. tuberculosis H37Rv. Description: Dose-response growth inhibition (broth microdilution). Format: cell-based. The conditions noted are these: Mycobacterium tuberculosis, 168 h, M. tuberculosis H37Rv, 7 days; for MIC50: concentration that inhibits 50% of growth, read-out: MIC50; for MIC90: concentration that inhibits 90% of growth, read-out: MIC90.
In data set [4] the test system is M. avium 11. The description is as above. The format is cell-based, Mycobacterium avium. To be noted: Mycobacterium avium, 96 h, M. avium 11, 4 days; for MIC50: read-out: MIC50; for MIC90: read-out: MIC90.
The test system of data set [5] is M. avium 11. Description: Bactericidal assay (CFU, fold kill). Format: cell-based, Mycobacterium avium. To be noted: 10^7 CFU/mL exposed to MIC90 for 4 days, CFU vs starting inoculum.
The subject of the next data set is M. tuberculosis. On the set-up: method as in http://www.pathogenbox.org/. The conditions noted are these: as reported by MMV, ref http://www.pathogenbox.org/; cited from earlier work.
The mark [6] stands for this setting: 72 h, M. abscessus Bamboo, 3 days.
Where [7] appears, read: 72 h, M. abscessus Bamboo, 3 days, read-out: MIC90.
Where [8] appears, read: IV 1 mg/kg, mean n = 2, ref http://www.pathogenbox.org/.

SMILES strings stand for the structures. Converted amounts (≈) assume the structure as drawn. Read-outs that look alike come from different tables or passages of the source. Bounds are passed on as bounds.

As a reminder, the MIC50 is an inhibitory concentration at the 50% level, which refers to growth in some studies and to a panel of isolates in others. Regarding `COc1ccc(OC)c(NCc2ccc3nc(N)nc(N)c3c2Cl)c1` [MMV675968], in the data set with M. abscessus Bamboo [1], the “Fold kill at MIC90” value is recorded as “NK (NK, “no kill,” i.e., CFU reduction < 10-fold at MIC90)”. For the same compound, the MIC50 with M. abscessus Bamboo [2] (setting [6]) was found to be 10.5 µM (≈ 3.78 µg/mL). In the data set on M. abscessus Bamboo [2] (setting [7]), the MIC90 came to 35 µM (≈ 12.6 µg/mL). Besides, in data set [3] (in vivo, iv, 1 mg/kg), the AUCinf is 900 ng·h/mL, the AUClast is reported as 897 ng·h/mL, the C0 is on record as 1080 ng/mL and the Cl is 18.7 mL/min/kg. In data set [3] (in vivo, po, 5 mg/kg), the AUCinf is 532 ng·h/mL, the AUClast was 504 ng·h/mL and the tmax is on record as 1 h. The “%F” value in data set [3] (in vivo) is recorded as 11%. Further, in the data set on M. tuberculosis H37Rv, the MIC50 is under 0.2 µM and the MIC90 was 4 µM (≈ 1.44 µg/mL). In the data set with M. avium 11 [4], the MIC50 was determined as 0.2 µM (≈ 0.072 µg/mL) and the MIC90 came to 3 µM (≈ 1.08 µg/mL). For the same compound, the “Fold kill at MIC90” value in the data set with M. avium 11 [5] is given as “NK (NK, “no kill,” i.e., CFU reduction < 10-fold at MIC90)”.

Turning to `Cc1cc(C)c2cc(C(=O)NC3CCCCCCC3)[nH]c2c1` [MMV687146], the “Fold kill at MIC90” value with M. abscessus Bamboo [1] was 100 fold; in the data set on M. avium 11 [5], “NK (NK, “no kill,” i.e., CFU reduction < 10-fold at MIC90)”. Moreover, the MIC50 in the data set on M. abscessus Bamboo [2] (setting [6]) was 0.8 µM (≈ 0.239 µg/mL); in the data set with M. tuberculosis H37Rv it was under 0.2 µM; with M. avium 11 [4], 3 µM (≈ 0.895 µg/mL). For the same compound, the values for the MIC90 in the data set on M. abscessus Bamboo [2] (setting [7]), in the data set on M. tuberculosis H37Rv and with M. avium 11 [4] were 2 µM (≈ 0.597 µg/mL), under 0.2 µM and 9 µM (≈ 2.69 µg/mL), respectively. Besides, the AUCinf is 935 ng·h/mL in data set [3] (in vivo, iv, 1 mg/kg) and 483 ng·h/mL in data set [3] (in vivo, po, 5 mg/kg). Moreover, the AUClast in data set [3] (in vivo, iv, 1 mg/kg) is listed as 798 ng·h/mL; in data set [3] (in vivo, po, 5 mg/kg), 456 ng·h/mL. Moreover, the C0 in data set [3] (in vivo, iv, 1 mg/kg) is listed as 2270 ng/mL. Moreover, in data set [3] (in vivo, iv, 1 mg/kg), the Cl is 18.2 mL/min/kg. The tmax in data set [3] (in vivo, po, 5 mg/kg) was 0.75 h. The “%F” value in data set [3] (in vivo) is listed as 11%. In the data set on M. tuberculosis, the “Reported MIC” value is under 0.024 µM.

One may read the Vss as the apparent volume that relates the amount in the body to the concentration in plasma or blood. For `CCCCOC(=O)Nc1cc2nc(C3CCCCC3)[nH]c2cc1N1CCCC1` [MMV687730], the “Fold kill at MIC90” value in the data set with M. abscessus Bamboo [1] is given as 10 fold. For the same compound, the MIC50 in the data set with M. abscessus Bamboo [2] (setting [6]) was 4 µM (≈ 1.54 µg/mL). In addition, in the data set with M. abscessus Bamboo [2] (setting [7]), the MIC90 was found to be 8.5 µM (≈ 3.27 µg/mL). In addition, in data set [3] (setting [8]), the AUCinf was 125 ng·h/mL, the AUClast is reported as 108 ng·h/mL, the C0 is 444 ng/mL and the Cl is on record as 166 mL/min/kg. In data set [3] (setting [8]), the volume of distribution (Vss) is 15.9 L/kg and the t1/2 is 3.34 h. Further, the Cmax entry in data set [3] (PO 5 mg/kg, mean n = 2, BLQ = < 1 ng/mL, ref http://www.pathogenbox.org/) is “NC (BLQ at all time points)”. Further, in the data set on M. tuberculosis H37Rv, the MIC50 was under 0.2 µM and the MIC90 was under 0.2 µM. Besides, in the data set with M. avium 11 [4], the MIC50 amounted to 5 µM (≈ 1.92 µg/mL) and the MIC90 amounted to 22 µM (≈ 8.46 µg/mL). The “Fold kill at MIC90” value with M. avium 11 [5] was “NK (NK, “no kill,” i.e., CFU reduction < 10-fold at MIC90)”. Besides, the “Reported MIC” value in the data set with M. tuberculosis was 0.05 µM.

With `CN1CCN(CCCOc2ncc(Nc3ncc(-c4ccc(C(F)(F)F)c(F)c4)nc3C(N)=O)cn2)CC1` [MMV687812], the “Fold kill (Fold kill at MIC90)” value with M. abscessus Bamboo [1] (at 12 μM (80% growth inhibition), MIC90 not reached) is reported as “NK^∧ (NK, “no kill,” i.e., CFU reduction < 10-fold at MIC90)”. The MIC50 was 6 µM (≈ 3.21 µg/mL) in the data set with M. abscessus Bamboo [2] (setting [6]), under 0.2 µM in the data set on M. tuberculosis H37Rv and 25 µM (≈ 13.4 µg/mL) in the data set with M. avium 11 [4]. In addition, the MIC90 in the data set with M. abscessus Bamboo [2] (setting [7]) is over 50 µM; in the data set on M. abscessus Bamboo [2] (read-out: Concentration at which 80% growth inhibition was achieved (printed in MIC90 column)), 12 µM (≈ 6.41 µg/mL); with M. tuberculosis H37Rv, 2.2 µM (≈ 1.18 µg/mL); with M. avium 11 [4], over 50 µM. For the same compound, the AUCinf in data set [3] (in vivo, iv, 1 mg/kg) is reported as 801 ng·h/mL; in data set [3] (in vivo, po, 5 mg/kg), 2450 ng·h/mL. For the same compound, the AUClast in data set [3] (in vivo, iv, 1 mg/kg) was 381 ng·h/mL; in data set [3] (in vivo, po, 5 mg/kg) it was 962 ng·h/mL. The C0 in data set [3] (in vivo, iv, 1 mg/kg) was 265 ng/mL. Also, in data set [3] (in vivo, iv, 1 mg/kg), the Cl is recorded as 20.8 mL/min/kg. Also, the tmax in data set [3] (in vivo, po, 5 mg/kg) was 7 h. Besides, the “%F” value in data set [3] (in vivo) is reported as 50%. Moreover, in the data set with M. avium 11 [5], the “Fold kill at MIC90” value is “NK (NK, “no kill,” i.e., CFU reduction < 10-fold at MIC90)”. Moreover, the “Reported MIC” value with M. tuberculosis was 1.2 µM.

`CC(=O)NC[C@H]1CN(c2ccc(-c3ccc(CNCc4cnn[nH]4)cc3)c(F)c2)C(=O)O1` [MMV688327, radezolid, reference compound]: the “Fold kill at MIC90” value in the data set with M. abscessus Bamboo [1] is reported as “NK (NK, “no kill,” i.e., CFU reduction < 10-fold at MIC90)”; in the data set on M. avium 11 [5] it was “NK (NK, “no kill,” i.e., CFU reduction < 10-fold at MIC90)”. Also, the values for the MIC50 with M. abscessus Bamboo [2] (setting [6]), with M. tuberculosis H37Rv and in the data set with M. avium 11 [4] were 3.8 µM (≈ 1.67 µg/mL), 0.5 µM (≈ 0.219 µg/mL) and 4 µM (≈ 1.75 µg/mL), respectively. The MIC90 was 13 µM (≈ 5.7 µg/mL) with M. abscessus Bamboo [2] (setting [7]), 2 µM (≈ 0.877 µg/mL) in the data set with M. tuberculosis H37Rv and 35 µM (≈ 15.3 µg/mL) with M. avium 11 [4]. Moreover, in the data set with M. tuberculosis, the “Reported MIC” value is 0.3 µM.
